The IC50 is the concentration at which inhibition is half-maximal.

We go through 18 molecules from patent publication US20240199587A1, “HETEROCYCLIC COMPOUNDS” (Hoffmann-La Roche Inc., priority 2021, published 2024).

The structures appear in SMILES notation.

For the assay, the target named is T1, MAGL (Homo sapiens, UniProt Q99685).
T1 sequence (Q99685 1-303): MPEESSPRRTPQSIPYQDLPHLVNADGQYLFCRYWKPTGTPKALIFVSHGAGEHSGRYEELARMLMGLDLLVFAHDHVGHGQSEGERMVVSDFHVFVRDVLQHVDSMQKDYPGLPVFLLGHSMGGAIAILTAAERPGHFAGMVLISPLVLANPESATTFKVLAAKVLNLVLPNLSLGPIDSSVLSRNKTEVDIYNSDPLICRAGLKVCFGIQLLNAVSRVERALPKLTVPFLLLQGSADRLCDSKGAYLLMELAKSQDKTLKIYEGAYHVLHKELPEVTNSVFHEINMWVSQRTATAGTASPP
The assay can be described thus: 2-AG assay (MAGL inhibitory activity, hydrolysis of 2-arachidonoylglycerol to arachidonic acid followed by mass spectrometry). It is filed as biochemical. The note with it: 8 μM 2-arachidonoylglycerol, 15 min pre-incubation, 30 min incubation at RT, RapidFire MS readout. Put shortly:
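Human MAGL ([…] final) pre-incubated 15 min at RT with compound in 50 mM TRIS, 1 mM EDTA, 0.01% Tween-20, 2.5% DMSO; 8 μM 2-AG then added for 30 min at RT. Acetonitrile quench with d8-arachidonic acid; arachidonic acid measured by RapidFire SPE–MS/MS, activity from arachidonic acid/d8 ratio.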
`O=C(N1CC(C23CC(NCC4(C(F)(F)F)CC4)(C2)C3)C1)N1CC2(CC(n3cnc(C4CC4)n3)C2)C1` [Example 445, [6-(3-cyclopropyl-1,2,4-triazol-1-yl)-2-azaspiro[3.3]heptan-2-yl]-[3-[3-[[1-(trifluoromethyl)cyclopropyl]methylamino]-1-bicyclo[1.1.1]pentanyl]azetidin-1-yl]methanone] registered an IC50 of 0.3 nM.
For `N=S(=O)(c1ccc(CC2CC3(C2)CN(C(=O)N2CC4(CC(n5cnc(C6CC6)n5)C4)C2)C3)cc1)C(F)(F)F` (stereo not drawn) [Example 446, [6-(3-cyclopropyl-1,2,4-triazol-1-yl)-2-azaspiro[3.3]heptan-2-yl]-[6-[[4-(trifluoromethylsulfonimidoyl)phenyl]methyl]-2-azaspiro[3.3]heptan-2-yl]methanone] the value was 0.06 nM.
For `N=S(=O)(c1cccc(CC2CC3(C2)CN(C(=O)N2CC4(CC(n5cnc(C6CC6)n5)C4)C2)C3)c1)C(F)(F)F` (stereo not drawn) [Example 447, [6-(3-cyclopropyl-1,2,4-triazol-1-yl)-2-azaspiro[3.3]heptan-2-yl]−[6-[[3-(trifluoromethylsulfonimidoyl)phenyl]methyl]-2-azaspiro[3.3]heptan-2-yl]methanone] the value was 0.02 nM.
For `CC1(Cc2nnc(-c3ccc(C4CN(C(=O)N5CC6(CC(n7cnc(C8CC8)n7)C6)C5)C4)cc3)[nH]2)CC1` [Example 448, [6-(3-cyclopropyl-1,2,4-triazol-1-yl)-2-azaspiro[3.3]heptan-2-yl]-[3-[4-[5-[(1-methylcyclopropyl)methyl]-4H-1,2,4-triazol-3-yl]phenyl]azetidin-1-yl]methanone] the value was 0.93 nM.
The molecule `O=C(N1CC2(CC(n3cnc(C4CC4)n3)C2)C1)N1CC2(CC(n3cnc(C(F)(F)F)n3)C2)C1` [Example 449, [6-(3-cyclopropyl-1,2,4-triazol-1-yl)-2-azaspiro[3.3]heptan-2-yl]-[6-[3-(trifluoromethyl)-1,2,4-triazol-1-yl]-2-azaspiro[3.3]heptan-2-yl]methanone] gave an IC50 of 1.37 nM.
For `O=C(N1CC2(CC(n3cnc(C4CC4)n3)C2)C1)N1CC2(CC(n3ncnc3C3CC3)C2)C1` [Example 450, [6-(3-cyclopropyl-1,2,4-triazol-1-yl)-2-azaspiro[3.3]heptan-2-yl]-[6-(5-cyclopropyl-1,2,4-triazol-1-yl)-2-azaspiro[3.3]heptan-2-yl]methanone] the value was 71.4 nM; for `COc1cc(C(F)(F)F)ccc1CNC1CN(C(=O)N2CC3(CC(n4cnc(C(F)(F)F)n4)C3)C2)C1` [Example 451, [3-[[2-methoxy-4-(trifluoromethyl)phenyl]methylamino]azetidin-1-yl]-[6-[3-(trifluoromethyl)-1,2,4-triazol-1-yl]-2-azaspiro[3.3]heptan-2-yl]methanone], 31.7 nM.
With `O=C(N1CC(c2ccc(N3CC(O)(C(F)(F)F)C3)nc2)C1)N1CC2(CC(n3cnc(C(F)(F)F)n3)C2)C1` [Example 452, [3-[6-[3-hydroxy-3-(trifluoromethyl)azetidin-1-yl]-3-pyridyl]azetidin-1-yl]-[6-[3-(trifluoromethyl)-1,2,4-triazol-1-yl]-2-azaspiro[3.3]heptan-2-yl]methanone] the figure was 3.69 nM; with `CC1(O)CN(c2ccc(C3CN(C(=O)N4CC5(CC(n6cnc(C(F)(F)F)n6)C5)C4)C3)cn2)C1` [Example 453, [3-[6-(3-hydroxy-3-methyl-azetidin-1-yl)-3-pyridyl]azetidin-1-yl]-[6-[3-(trifluoromethyl)-1,2,4-triazol-1-yl]-2-azaspiro[3.3]heptan-2-yl]methanone], 39.4 nM.
With `O=C(N1CC2(CC(NS(=O)(=O)c3cccc(C(F)(F)F)c3)C2)C1)N1CC2(CC(n3cnc(C(F)(F)F)n3)C2)C1` [Example 454, 3-(trifluoromethyl)-N-[2-[6-[3-(trifluoromethyl)-1,2,4-triazol-1-yl]-2-azaspiro[3.3]heptane-2-carbonyl]-2-azaspiro[3.3]heptan-6-yl]benzenesulfonamide] the figure was 0.71 nM.
`CS(=O)(=O)c1ccc(CC2CC3(C2)CN(C(=O)N2CC4(CC(n5cnc(C(F)(F)F)n5)C4)C2)C3)cc1` [Example 455, [6-[(4-methylsulfonylphenyl)methyl]-2-azaspiro[3.3]heptan-2-yl]-[6-[3-(trifluoromethyl)-1,2,4-triazol-1-yl]-2-azaspiro[3.3]heptan-2-yl]methanone] returned an IC50 of 1.25 nM.
With `CS(=O)(=O)c1cccc(CC2CC3(C2)CN(C(=O)N2CC4(CC(n5cnc(C(F)(F)F)n5)C4)C2)C3)c1` [Example 456, [6-[(3-methylsulfonylphenyl)methyl]-2-azaspiro[3.3]heptan-2-yl]-[6-[3-(trifluoromethyl)-1,2,4-triazol-1-yl]-2-azaspiro[3.3]heptan-2-yl]methanone], the IC50 was 1.16 nM.
As for `CS(=O)(=O)c1cncc(CC2CC3(C2)CN(C(=O)N2CC4(CC(n5cnc(C(F)(F)F)n5)C4)C2)C3)c1` [Example 457, [6-[(5-methylsulfonyl-3-pyridyl)methyl]-2-azaspiro[3.3]heptan-2-yl]-[6-[3-(trifluoromethyl)-1,2,4-triazol-1-yl]-2-azaspiro[3.3]heptan-2-yl]methanone], the IC50 turned out to be 11 nM.
For `CS(=O)(=O)c1ccc(CC2CC3(C2)CN(C(=O)N2CC4(CC(n5cnc(C(F)(F)F)n5)C4)C2)C3)nc1` [Example 458, [6-[(5-methylsulfonyl-2-pyridyl)methyl]-2-azaspiro[3.3]heptan-2-yl]-[6-[3-(trifluoromethyl)-1,2,4-triazol-1-yl]-2-azaspiro[3.3]heptan-2-yl]methanone] the value was 19.4 nM; for `CS(=O)(=O)c1ccc(CC2CC3(C2)CN(C(=O)N2CC4(CC(n5cnc(C(F)(F)F)n5)C4)C2)C3)c(F)c1` [Example 459, [6-[(2-fluoro-4-methylsulfonyl-phenyl)methyl]-2-azaspiro[3.3]heptan-2-yl]-[6-[3-(trifluoromethyl)-1,2,4-triazol-1-yl]-2-azaspiro[3.3]heptan-2-yl]methanone], 0.3 nM; for `CS(=O)(=O)c1cc(F)cc(CC2CC3(C2)CN(C(=O)N2CC4(CC(n5cnc(C(F)(F)F)n5)C4)C2)C3)c1` [Example 460, [6-[(3-fluoro-5-methylsulfonyl-phenyl)methyl]-2-azaspiro[3.3]heptan-2-yl]-[6-[3-(trifluoromethyl)-1,2,4-triazol-1-yl]-2-azaspiro[3.3]heptan-2-yl]methanone], 0.93 nM.
`CS(=N)(=O)c1cccc(CC2CC3(C2)CN(C(=O)N2CC4(CC(n5cnc(C6CC6)n5)C4)C2)C3)c1` (stereo not drawn) [Example 461, [6-(3-cyclopropyl-1,2,4-triazol-1-yl)-2-azaspiro[3.3]heptan-2-yl]-[6-[[3-(methylsulfonimidoyl)phenyl]methyl]-2-azaspiro[3.3]heptan-2-yl]methanone]: half-maximal inhibition (IC50) required 1.79 nM.
With `CS(=N)(=O)c1ccc(CC2CC3(C2)CN(C(=O)N2CC4(CC(n5cnc(C6CC6)n5)C4)C2)C3)cc1` (stereo not drawn) [Example 462, [6-(3-cyclopropyl-1,2,4-triazol-1-yl)-2-azaspiro[3.3]heptan-2-yl]-[6-[[4-(methylsulfonimidoyl)phenyl]methyl]-2-azaspiro[3.3]heptan-2-yl]methanone] the figure was 2.94 nM.
